Laboratory results as given in patent US11286258B2, “Nature-inspired anticancer and antibacterial motifs and pharmaceutical composition thereof” (University of Sharjah, priority 2020, dated 2022).
Converted amounts (≈) assume the structure as drawn.

What was measured:
E. coli ATCC25922 = test: MIC broth microdilution, E. coli ATCC25922; format: cell-based, Escherichia coli; settings: not MDR, overnight incubation; for MIC: Escherichia coli, ATCC25922
Protocol: (§1) Antibacterial activity: The compounds were tested for the minimum inhibitory concentrations (MIC), which is the lowest concentration of a chemical required to inhibit visible microbial growth following overnight incubation. MIC values were determined using broth microdilution method according to the Clinical and Laboratory Standards Institute guidelines (CLSI, 2015, M07-A10). Mueller-Hinton broth was used as a culture medium in all the experiments. Exponentially growing bacterial cells were prepared in Mueller-Hinton broth at a concentration of approximately 5×10^5 CFU/mL. Two-fold serial dilutions of the test compound (8 concentrations ranged between 100-0.78 μg/mL) were tested. […] In each experiment, solvent (DMSO) was used as a negative control, un-treated control (composing of bacteria in Mueller-Hinton broth) was used as a growth control, blank (culture media alone) was used as sterility control. The 96-well microplate with the test compounds was incubated overnight at 37° C. Turbidity in wells indicated bacterial growth.
(§2) The compounds were tested on six MDR Gram-positive bacteria including three clinical isolates of methicillin-resistant Staphylococcus aureus (MRSA-1, MRSA-2 and MRSA-3) and three reference MRSA strains (ATCC33591, ATCC33592 and ATCC700699). They were also tested on three MDR Gram-negative bacteria including New Delhi metallo-beta-lactamase (NDM-1) positive, carbapenem-resistant E. coli (ATCC BAA2469), extended-spectrum beta-lactamase (ESBL) producing, colistin-resistant E. coli (CDC-AR-0346) and carbapenem-resistant Acinetobacter baumannii (ATCC BAA1605), in addition to two non-MDR bacteria from the same species, namely E. coli (ATCC 25922) Acinetobacter baumannii (ATCC 19606).

[1] = test system: E. coli ATCC BAA2469 (NDM-1 carbapenem-resistant); test: MIC broth microdilution, E. coli ATCC BAA2469; format: cell-based, Escherichia coli; settings: overnight incubation; for MIC: Escherichia coli, ATCCBAA2469, MDR
Protocol: as §1, §2

[2] = test system: E. coli CDC-AR-0346 (ESBL, colistin resistant); test: MIC broth microdilution, E. coli CDC-AR-0346; format: cell-based, Escherichia coli; settings: MDR, overnight incubation; for MIC: Escherichia coli
Protocol: as §1, §2

[3] = test system: Acinetobacter baumannii ATCC 19606; test: MIC broth microdilution, A. baumannii ATCC 19606; format: cell-based; settings: not MDR, overnight incubation; for MIC: Acinetobacter baumannii, ATCC19606
Protocol: as §1, §2

[4] = test system: Acinetobacter baumannii ATCC BAA1605 (carbapenem-resistant); test: MIC broth microdilution, A. baumannii ATCC BAA1605; format: cell-based; settings: overnight incubation; for MIC: Acinetobacter baumannii, ATCCBAA1605, MDR; for MIC Acinetobacter baumannii ATCC BAA1605 (carbapenem-resistant): MDR
Protocol: as §1, §2

[5] = test system: MRSA-1 (clinical isolate); test: MIC broth microdilution, MRSA-1; format: cell-based, Staphylococcus aureus; settings: overnight incubation, Mueller-Hinton broth; for MIC: Staphylococcus aureus, MRSA, read-out: MIC MRSA-1 (clinical isolate)
Protocol: as §1, §2

[6] = test system: MRSA-2 (clinical isolate); test: MIC broth microdilution, MRSA-2; format: cell-based, Staphylococcus aureus; settings: overnight incubation, Mueller-Hinton broth; for MIC: Staphylococcus aureus, MRSA, read-out: MIC MRSA-2 (clinical isolate)
Protocol: as §1, §2

[7] = test system: MRSA-3 (clinical isolate); test: MIC broth microdilution, MRSA-3; format: cell-based, Staphylococcus aureus; settings: overnight incubation, Mueller-Hinton broth; for MIC: Staphylococcus aureus, MRSA, read-out: MIC MRSA-3 (clinical isolate)
Protocol: as §1, §2

MRSA-ATCC33591 = test: MIC broth microdilution, MRSA ATCC33591; format: cell-based, Staphylococcus aureus; settings: overnight incubation, Mueller-Hinton broth; for MIC: Staphylococcus aureus, read-out: MIC MRSA-ATCC33591
Protocol: as §1, §2

MRSA-ATCC33592 = test: MIC broth microdilution, MRSA ATCC33592; format: cell-based, Staphylococcus aureus; settings: overnight incubation, Mueller-Hinton broth; for MIC: Staphylococcus aureus, read-out: MIC MRSA-ATCC33592
Protocol: as §1, §2

MRSA-ATCC700699 (VISA) = test: MIC broth microdilution, MRSA ATCC700699 (VISA); format: cell-based, Staphylococcus aureus; settings: strain intermediately resistant to vancomycin, overnight incubation; for MIC: Staphylococcus aureus, read-out: MIC MRSA-ATCC700699 (VISA)
Protocol: as §1, §2

HCT-116 = test: MTT cell viability, HCT-116; format: cell-based; settings: Homo sapiens, colon cancer, 48 h of drug treatment, average of three experiments
Source text: (§3) Cell culture: In this study five different cancer cell lines were used, human lung carcinoma (A549), human breast adenoma (MCF-7), Cervical carcinoma (Hela), hepatocellular carcinoma (Hep3B), and colorectal adenocarcinoma (HCT-116). These cells were obtained from the European Collection of Cell Cultures (ECACC, UK). Hep3B cells were maintained in Dulbecco's Modified Eagle Medium (DMEM: Sigma-Aldrich), and the four other cell lines were maintained in Roswell Park Memorial Institute medium (RPMI, Sigma-Aldrich, St. Louis, Mo., USA), which was supplemented with 10% fetal bovine serum (FBS, Sigma-Aldrich) and 1% penicillin/streptomycin (Sigma-Aldrich). Cells were incubated all the time at 37° C. in a humidified atmosphere of 5% CO2. Cell viability studies: Cell viability was assessed using the MTT assay as described before. In brief, all cancer cell lines were seeded at a density of 4×10^4/well in 96 well flat-bottom plates. After 24 h from seeding, cells were treated with the synthesized compounds and left for an incubation period of 48 h. Upon reaching the indicated time point, the media was removed and replaced with 200 μL fresh media containing 0.5 mg/mL of MTT tetrazolium dye (Sigma-Aldrich). Cells were then incubated with MTT solution for 2 h at 37° C. The resultant formazan crystals were dissolved in 200 μl/well of DMSO and absorbance was measured at 570 nm using a microplate reader (Thermo Scientific).

HELA = test: MTT cell viability, HELA; format: cell-based; settings: Homo sapiens, cervical cancer, 48 h of drug treatment, average of three experiments
Source text: as §3

A549 = test: MTT cell viability, A549; format: cell-based; settings: Homo sapiens, lung cancer, 48 h of drug treatment, average of three experiments
Source text: as §3

HEP3B = test: MTT cell viability, HEP3B; format: cell-based; settings: Homo sapiens, liver cancer, 48 h of drug treatment, average of three experiments
Source text: as §3

MCF-7 = test: MTT cell viability, MCF-7; format: cell-based; settings: Homo sapiens, MCF7; breast cancer; 48 h of drug treatment; average of three experiments
Source text: as §3

[8] = test system: normal epithelial cells (HMEC); test: Cell viability, normal epithelial cells; format: cell-based; settings: Homo sapiens, 48 h of drug treatment, average of three experiments
Protocol: Cell viability studies: Cell viability was assessed using the MTT assay as described before. In brief, all cancer cell lines were seeded at a density of 4×10^4/well in 96 well flat-bottom plates. After 24 h from seeding, cells were treated with the synthesized compounds and left for an incubation period of 48 h. Upon reaching the indicated time point, the media was removed and replaced with 200 μL fresh media containing 0.5 mg/mL of MTT tetrazolium dye (Sigma-Aldrich). Cells were then incubated with MTT solution for 2 h at 37° C. The resultant formazan crystals were dissolved in 200 μl/well of DMSO and absorbance was measured at 570 nm using a microplate reader (Thermo Scientific).

| Compound | MIC (E. coli ATCC25922) | MIC [1] | MIC [2] | MIC [3] | MIC [4] | MIC Acinetobacter baumannii ATCC BAA1605 (carbapenem-resistant) [4] | MIC [5] | MIC [6] | MIC [7] | MIC (MRSA-ATCC33591) | MIC (MRSA-ATCC33592) | MIC (MRSA-ATCC700699 (VISA)) | also measured |
| --- | --- | --- | --- | --- | --- | --- | --- | --- | --- | --- | --- | --- | --- |
| C[C@@H](O)[C@H]1C(=O)N2C(C(=O)O)=C(S[C@@H]3CN[C@H](C(=O)N(C)C)C3)[C@H](C)[C@H]12 [Meropenem] | < 0.02 µg/mL | 25 µg/mL (≈ 65.2 µM) | < 0.2 µg/mL | 0.6 µg/mL (≈ 1.56 µM) | 12.5 µg/mL (≈ 32.6 µM) |  |  |  |  |  |  |  |  |
| Gentamicin [reference compound] |  |  |  |  |  | 125 µg/mL |  |  |  |  |  |  | MIC MRSA-1 (clinical isolate) [5]: 50 µg/mL; MIC MRSA-2 (clinical isolate) [6]: 0.625 µg/mL; MIC MRSA-3 (clinical isolate) [7]: 0.625 µg/mL; MIC MRSA-ATCC33591 (MRSA-ATCC33591): 2.5 µg/mL; MIC MRSA-ATCC33592 (MRSA-ATCC33592): >500 µg/mL; MIC MRSA-ATCC700699 (VISA) (MRSA-ATCC700699 (VISA)): 500 µg/mL; MIC E. coli ATCC25922 (E. coli ATCC25922): 0.625 µg/mL; MIC E. coli ATCC BAA2469 (NDM-1 carbapenem-resistant) ([1]; MDR): >1000 µg/mL; MIC E. coli CDC-AR-0346 (ESBL, colistin resistant) [2]: >1000 µg/mL; MIC Acinetobacter baumannii ATCC 19606 [3]: 10 µg/mL |
| FC(F)(F)c1ccc(N/N=C2\C=C[C@@]3(CC2)CC[C@@H]2NCCc4c2n3c2ccc(OCc3ccccc3)cc42)cc1 [Compound 1l] |  |  |  |  |  |  | 1.56 µg/mL (≈ 2.8 µM) | 3.12 µg/mL (≈ 5.61 µM) | 3.12 µg/mL (≈ 5.61 µM) | 3.12 µg/mL (≈ 5.61 µM) | 3.12 µg/mL (≈ 5.61 µM) | 3.12 µg/mL (≈ 5.61 µM) |  |
| COC(=O)[C@@H]1Cc2c3n(c4ccccc24)[C@@]2(C=C/C(=N\Nc4ccc(C(F)(F)F)cc4)CC2)CC[C@@H]3N1 [Compound 1m] |  |  |  |  |  |  | 3.12 µg/mL (≈ 6.14 µM) | 3.12 µg/mL (≈ 6.14 µM) | 3.12 µg/mL (≈ 6.14 µM) | 6.25 µg/mL (≈ 12.3 µM) | 6.25 µg/mL (≈ 12.3 µM) | 6.25 µg/mL (≈ 12.3 µM) |  |
| CO/N=C(\C(=O)N[C@@H]1C(=O)N2C(C(=O)O)=C(COC(C)=O)CS[C@H]12)c1csc(N)n1 [Cefotaxime] | 0.03 µg/mL (≈ 0.0659 µM) | 250 µg/mL (≈ 549 µM) | > 1000 µg/mL | 20 µg/mL (≈ 43.9 µM) | ≥ 1000 µg/mL | 1000 µg/mL (≈ 2200 µM) |  |  |  |  |  |  |  |
| COc1ccc2c3c4n(c2c1)[C@@]1(C=C/C(=N\Nc2ccc(C(F)(F)F)cc2)CC1)CC[C@@H]4NCC3 [Compound 1j] |  |  |  |  |  |  | 1.56 µg/mL (≈ 3.25 µM) | 3.12 µg/mL (≈ 6.5 µM) | 3.12 µg/mL (≈ 6.5 µM) | 3.12 µg/mL (≈ 6.5 µM) | 3.12 µg/mL (≈ 6.5 µM) | 3.12 µg/mL (≈ 6.5 µM) | IC50 (HCT-116): 2300 ± 40 nM; IC50 (HELA): 4.601 ± 0.03 µM; IC50 (A549): 5.61 ± 0.12 µM; IC50 (HEP3B): 2880 ± 140 nM; IC50 (MCF-7): 3000 ± 2400 nM; IC50 [8]: 10.77 ± 0.05 µM |
